The record followed here is ChEMBL document CHEMBL1147189, “QSAR analysis for heterocyclic antifungals” (2007).

≈ marks a conversion by molar mass, not a printed value.

The experiment concerns Candida albicans. The experiment in a line: Antifungal activity against Candida albicans by serial dilution method. It is filed as functional. Particulars: read-out: -Log MIC (converted).
As for `Nc1ccc(-c2nc3ccccc3o2)cc1`, the MIC is 119 µM (≈ 25 µg/mL).

For the molecule `c1ccc(CCc2nc3ccccc3[nH]2)cc1`, the MIC is 83.6 µM (≈ 18.6 µg/mL).

Take `Nc1ccc2oc(-c3ccc(F)cc3)nc2c1`: the MIC was 110 µM (≈ 25 µg/mL).

Take `O=[N+]([O-])c1ccc2[nH]c(CSc3ccccc3)nc2c1`: the MIC is 43.9 µM (≈ 12.5 µg/mL).

Turning to `Cc1ccc2[nH]c(CSc3ccccc3)nc2c1`, the MIC was 97.9 µM (≈ 24.9 µg/mL).

`Clc1ccc2oc(COc3ccccc3)nc2c1`: the MIC is 45.3 µM (≈ 11.8 µg/mL).

Turning to `Cc1ccc2nc(CSc3ccccc3)oc2c1`, the MIC is 97.9 µM (≈ 25 µg/mL).

With `COC(=O)c1ccc2[nH]c(COc3ccccc3)nc2c1`, the MIC was 88.5 µM (≈ 25 µg/mL).

For the molecule `O=[N+]([O-])c1ccc2[nH]c(COc3ccccc3)nc2c1`, the MIC is 52.1 µM (≈ 14 µg/mL).

As to `Clc1ccc2[nH]c(CSc3ccccc3)nc2c1`, the MIC is 91 µM (≈ 25 µg/mL).

Take `c1ccc(NCc2nc3ccccc3[nH]2)cc1`: the minimal inhibitory concentration (MIC) is 112 µM (≈ 25 µg/mL).

Turning to `Clc1ccc(Cc2nc3ccccc3o2)cc1`, the MIC is 51.3 µM (≈ 12.5 µg/mL).

Turning to `O=[N+]([O-])c1ccc(Cc2nc3cc([N+](=O)[O-])ccc3o2)cc1`, the MIC is 20.9 µM (≈ 6.25 µg/mL).

With `Clc1ccc2[nH]c(COc3ccccc3)nc2c1`, the MIC is 48.3 µM (≈ 12.5 µg/mL).

As for `Cc1ccc2[nH]c(CNc3ccccc3)nc2c1`, the MIC is 105 µM (≈ 25 µg/mL).

With `CC(=O)Nc1ccc(-c2nc3cc(C)ccc3o2)cc1`, the MIC was 94 µM (≈ 25 µg/mL).

For `COC(=O)c1ccc2[nH]c(CSc3ccccc3)nc2c1`, the MIC was 83.9 µM (≈ 25 µg/mL).

On to `O=[N+]([O-])c1ccc2oc(CCc3ccccc3)nc2c1`, for which the MIC was 46.7 µM (≈ 12.5 µg/mL).

In the case of `Nc1ccc(-c2nc3ncccc3o2)cc1`, the MIC is 59.3 µM (≈ 12.5 µg/mL).

In the case of `CC(C)(C)c1ccc(-c2nc3ccccc3o2)cc1`, the MIC was 99.8 µM (≈ 25.1 µg/mL).

Regarding `CC(=O)Nc1ccc(-c2nc3cc(Cl)ccc3o2)cc1`, the MIC is 87.3 µM (≈ 25 µg/mL).

`CCc1ccc(-c2nc3cc(Cl)ccc3o2)cc1`: the MIC is 97.1 µM (≈ 25 µg/mL).

As to `Cc1ccc2nc(COc3ccccc3)oc2c1`, the MIC was 104 µM (≈ 25 µg/mL).

As to `O=[N+]([O-])c1ccc2oc(COc3ccc(Cl)cc3)nc2c1`, the MIC is 82 µM (≈ 25 µg/mL).

For `O=[N+]([O-])c1cc2oc(CSc3ccccc3)nc2cc1Cl`, the MIC is 39 µM (≈ 12.5 µg/mL).

Turning to `COC(=O)c1ccc2oc(CSc3ccccc3)nc2c1`, the MIC is 41.8 µM (≈ 12.5 µg/mL).

For the molecule `Cc1ccc2oc(-c3ccc(N(C)C)cc3)nc2c1`, the MIC was 99.1 µM (≈ 25 µg/mL).

As for `Cc1ccc(-c2nc3ncccc3o2)cc1`, the MIC is 59.6 µM (≈ 12.5 µg/mL).

Turning to `Clc1ccc(-c2nc3cc(Cl)ccc3o2)cc1`, the MIC is 94.6 µM (≈ 25 µg/mL).

As for `O=[N+]([O-])c1ccc(-c2nc3cc(Cl)ccc3o2)cc1`, the MIC is 91.2 µM (≈ 25 µg/mL).

Take `Cc1ccc(-c2nc3cc([N+](=O)[O-])ccc3o2)cc1`: the MIC was 49.2 µM (≈ 12.5 µg/mL).

Turning to `CC(C)(C)c1ccc(-c2nc3cc([N+](=O)[O-])ccc3o2)cc1`, the MIC was 42.2 µM (≈ 12.5 µg/mL).

For `CNc1ccc(-c2nc3cc(Cl)ccc3o2)cc1`, the MIC is 94.4 µM (≈ 24.4 µg/mL).

Turning to `O=[N+]([O-])c1cc2oc(COc3ccc(Cl)cc3)nc2cc1Cl`, the MIC was 148 µM (≈ 50 µg/mL).

As to `O=[N+]([O-])c1ccc2oc(CSc3ccccc3)nc2c1`, the MIC was 43.8 µM (≈ 12.5 µg/mL).

Regarding `Clc1ccc(OCc2nc3cc(Cl)ccc3o2)cc1`, the MIC is 84.9 µM (≈ 25 µg/mL).

For `Clc1ccc(OCc2nc3ccccc3s2)cc1`, the MIC is 181 µM (≈ 49.9 µg/mL).

`COc1ccc(-c2nc3ncccc3o2)cc1`: the MIC is 55.3 µM (≈ 12.5 µg/mL).

For `CCOc1ccc(-c2nc3ncccc3o2)cc1`, the MIC was 52.1 µM (≈ 12.5 µg/mL).

Take `O=[N+]([O-])c1ccc(Cc2nc3ccccc3o2)cc1`: the MIC was 49.2 µM (≈ 12.5 µg/mL).

With `Clc1ccc2oc(Cc3ccccc3)nc2c1`, the MIC was 51.3 µM (≈ 12.5 µg/mL).

Take `Nc1ccc(-c2nc3cc([N+](=O)[O-])ccc3o2)cc1`: the MIC was 49 µM (≈ 12.5 µg/mL).

As for `c1ccc(Cc2nc3ccccc3o2)cc1`, the MIC is 59.8 µM (≈ 12.5 µg/mL).

Regarding `Cc1ccc2nc(COc3ccc(Cl)cc3)oc2c1`, the MIC was 183 µM (≈ 50 µg/mL).

Consider `O=[N+]([O-])c1ccc(-c2nc3ncccc3o2)cc1`, for which the MIC was 51.9 µM (≈ 12.5 µg/mL).

Regarding `COc1ccc(Cc2nc3cc(Cl)ccc3o2)cc1`, the MIC is 45.7 µM (≈ 12.5 µg/mL).

As to `Clc1ccc2oc(Cc3ccc(Br)cc3)nc2c1`, the MIC was 38.9 µM (≈ 12.6 µg/mL).

As for `O=[N+]([O-])c1ccc2oc(Cc3ccc(Cl)cc3)nc2c1`, the MIC is 21.7 µM (≈ 6.26 µg/mL).

As to `CCc1ccc(-c2nc3cc(N)ccc3o2)cc1`, the MIC was 105 µM (≈ 25 µg/mL).

Regarding `CN(C)c1ccc(-c2nc3cc(N)ccc3o2)cc1`, the MIC was 98.9 µM (≈ 25 µg/mL).

For `Cc1ccc(-c2nc3cc(C)ccc3o2)cc1`, the MIC is 112 µM (≈ 25.1 µg/mL).

For `CCc1ccc(-c2nc3cc(C)ccc3o2)cc1`, the MIC is 105 µM (≈ 25 µg/mL).

`COc1ccc(-c2nc3cc(C)ccc3o2)cc1`: the MIC is 105 µM (≈ 25.1 µg/mL).

As to `Cc1ccc2oc(COc3ccccc3)nc2c1`, the MIC is 105 µM (≈ 25.1 µg/mL).

Regarding `c1ccc(OCc2nc3ncccc3o2)cc1`, the MIC was 55 µM (≈ 12.4 µg/mL).

For the molecule `Clc1ccc(OCc2nc3ncccc3o2)cc1`, the MIC was 48 µM (≈ 12.5 µg/mL).

With `c1ccc(CCc2nc3ncccc3o2)cc1`, the MIC is 55.8 µM (≈ 12.5 µg/mL).

For `Clc1ccc(OCc2nc3ccccc3o2)cc1`, the MIC is 96.4 µM (≈ 25 µg/mL).

Turning to `O=[N+]([O-])c1ccc2nc(COc3ccc(Cl)cc3)oc2c1`, the MIC was 164 µM (≈ 50 µg/mL).

Take `c1ccc(SCc2nc3ccccc3[nH]2)cc1`: the MIC is 52 µM (≈ 12.5 µg/mL).

`Cc1ccc2[nH]c(CCc3ccccc3)nc2c1`: the MIC was 52.8 µM (≈ 12.5 µg/mL).

For `Cc1ccc2oc(-c3ccc(F)cc3)nc2c1`, the MIC is 110 µM (≈ 25 µg/mL).

For `Clc1ccc(OCc2nc3ccccc3[nH]2)cc1`, the MIC was 96.6 µM (≈ 25 µg/mL).

On to `CCc1ccc(-c2nc3ncccc3o2)cc1`, for which the MIC is 55.8 µM (≈ 12.5 µg/mL).

As for `O=[N+]([O-])c1ccc2oc(-c3ccccc3)nc2c1`, the MIC was 52.2 µM (≈ 12.5 µg/mL).

In the case of `COc1ccc(Cc2nc3ccccc3o2)cc1`, the MIC is 52.2 µM (≈ 12.5 µg/mL).

Regarding `O=[N+]([O-])c1ccc2oc(Cc3ccc(Br)cc3)nc2c1`, the MIC is 18.8 µM (≈ 6.28 µg/mL).

Turning to `O=[N+]([O-])c1ccc2oc(-c3ccc(Cl)cc3)nc2c1`, the MIC is 45.5 µM (≈ 12.5 µg/mL).

With `Cc1ccc2oc(COc3ccc(Cl)cc3)nc2c1`, the MIC is 183 µM (≈ 50 µg/mL).

Regarding `Cc1ccc2[nH]c(COc3ccccc3)nc2c1`, the MIC was 105 µM (≈ 25 µg/mL).

Consider `O=[N+]([O-])c1ccc2oc(-c3ccc(Br)cc3)nc2c1`, for which the MIC is 39.3 µM (≈ 12.5 µg/mL).

On to `O=[N+]([O-])c1ccc(Cc2nc3cc(Cl)ccc3o2)cc1`, for which the MIC is 43.4 µM (≈ 12.5 µg/mL).

Turning to `COc1ccc(Cc2nc3cc([N+](=O)[O-])ccc3o2)cc1`, the MIC was 22 µM (≈ 6.26 µg/mL).

`COC(=O)c1ccc2oc(COc3ccccc3)nc2c1`: the MIC is 88.3 µM (≈ 25 µg/mL).

Regarding `c1ccc(OCc2nc3ccccc3o2)cc1`, the MIC was 111 µM (≈ 25 µg/mL).

Consider `O=[N+]([O-])c1ccc2oc(COc3ccccc3)nc2c1`, for which the MIC is 92.5 µM (≈ 25 µg/mL).

Take `O=[N+]([O-])c1ccc2nc(COc3ccccc3)oc2c1`: the minimal inhibitory concentration (MIC) was 185 µM (≈ 50.1 µg/mL).

In the case of `O=[N+]([O-])c1ccc2nc(CSc3ccccc3)oc2c1`, the MIC was 43.7 µM (≈ 12.5 µg/mL).

As for `CNc1ccc(-c2nc3cc(C)ccc3o2)cc1`, the MIC is 105 µM (≈ 25 µg/mL).

With `COC(=O)c1ccc2[nH]c(COc3ccc(Cl)cc3)nc2c1`, the MIC is 79.1 µM (≈ 25 µg/mL).

As for `Clc1ccc(OCc2nc3cc(Cl)ccc3[nH]2)cc1`, the MIC was 42.7 µM (≈ 12.5 µg/mL).

For `Clc1ccc2[nH]c(CCc3ccccc3)nc2c1`, the MIC was 97.3 µM (≈ 25 µg/mL).

Take `CNc1ccc(-c2nc3ccccc3o2)cc1`: the MIC is 112 µM (≈ 25 µg/mL).

On to `Nc1ccc2oc(-c3ccc(Br)cc3)nc2c1`, for which the MIC is 77.6 µM (≈ 22.4 µg/mL).

For `Cc1ccc2oc(CSc3ccccc3)nc2c1`, the MIC was 97.9 µM (≈ 25 µg/mL).

As to `Cc1ccc2[nH]c(COc3ccc(Cl)cc3)nc2c1`, the MIC is 91.8 µM (≈ 25 µg/mL).

For `Brc1ccc(Cc2nc3ccccc3o2)cc1`, the MIC is 43.7 µM (≈ 12.6 µg/mL).

As to `O=[N+]([O-])c1cc2oc(COc3ccccc3)nc2cc1Cl`, the MIC was 164 µM (≈ 50 µg/mL).

Take `c1ccc(SCc2nc3ccccc3o2)cc1`: the MIC is 51.8 µM (≈ 12.5 µg/mL).

With `c1ccc(OCc2nc3ccccc3[nH]2)cc1`, the MIC is 111 µM (≈ 25 µg/mL).

For the molecule `COC(=O)c1ccc2oc(COc3ccc(Cl)cc3)nc2c1`, the MIC is 78.7 µM (≈ 25 µg/mL).

Regarding `O=[N+]([O-])c1ccc2oc(Cc3ccccc3)nc2c1`, the MIC was 24.6 µM (≈ 6.26 µg/mL).

As for `c1ccc(OCc2nc3ccccc3s2)cc1` [2-(PHENOXYMETHYL)BENZOTHIAZOLE], the MIC is 207 µM (≈ 50 µg/mL).

With `c1ccc(SCc2nc3ccccc3s2)cc1` [2-(PHENYLTHIOMETHYL)BENZO[D]THIAZOLE], the MIC was 97.1 µM (≈ 25 µg/mL).

For the molecule `c1ccc(-c2nc3ccccc3o2)cc1` [2-PHENYLBENZO[D]OXAZOLE], the MIC is 128 µM (≈ 25 µg/mL).
